Measurements: patent US20150057246A1, “SILYL-CONTAINING HETEROCYCLIC COMPOUNDS AND METHODS OF USE THEREOF FOR THE TREATMENT OF VIRAL DISEASES” (priority 2012, published 2015)
Where two headings read alike, the source gives them in different places.

How the values were obtained:
[1] = system: HCV 2b replicon; test: Cell-based HCV replicon assay (TaqMan), genotype 2b replicon; settings: Hepatitis C virus, 72 h, read-out: 2b EC90, HCV genotype 2b replicon cells, replicon RNA by real time PCR, day 3; EC90 = concentration for ΔCT=3.2 over baseline
Experimental: (§1) Measurement of inhibition by compounds of the present invention was performed using the HCV replicon system. Several different replicons encoding different HCV genotypes or mutations were used. In addition, potency measurements were made using different formats of the replicon assay, including different ways of measurements and different plating formats. See Jan M. Vrolijk et al., A replicons-based bioassay for the measurement of interferons in patients with chronic hepatitis C, 110 J. VIROLOGICAL METHODS 201 (2003); Steven S. Carroll et al., Inhibition of Hepatitis C Virus RNA Replication by 2′-Modified Nucleoside Analogs, 278(14) J. BIOLOGICAL CHEMISTRY 11979 (2003). However, the underlying principles are common to all of these determinations, and are outlined below.
(§2) TaqMan®-Based Assay Protocol:
(§3) Compounds of the present invention were assayed for cell-based anti-HCV activity using the following protocol. Replicon cells were seeded at 5000 cells/well in 96-well collagen I-coated Nunc plates in the presence of the test compound. Various concentrations of test compound, typically in 10 serial 2-fold dilutions, were added to the assay mixture, with the starting concentration ranging from 250 μM to 1 μM. The final concentration of DMSO was 0.5%, fetal bovine serum was 5%, in the assay media. Cells were harvested on day 3 by the addition of 1× cell lysis buffer (Ambion cat #8721). The replicon RNA level was measured using real time PCR (TaqMan® assay). The amplicon was located in 5B. The PCR primers were: 5B.2F, ATGGACAGGCGCCCTGA (SEQ. ID NO. 1); 5B.2R, […] (SEQ. ID NO. 2); the probe sequence was FAM-labeled CACGCCATGCGCTGCGG (SEQ. ID NO. 3). GAPDH RNA was used as endogenous control and was amplified in the same reaction as NS5B (multiplex PCR) using primers and VIC-labeled probe recommended by the manufacturer (PE Applied Biosystem). The real-time […] reactions were run on ABI PRISM 7900HT Sequence Detection System using the following program: 48° C. for 30 minutes, 95° C. for 10 minutes, 40 cycles of 95° C. for 15 sec, 60° C. for 1 minute. The ΔCT values (CT5B-CTGAPDH) were plotted against the concentration of test compound and fitted to the sigmoid dose-response model using XLfit4 (MDL). EC50 was defined as the concentration of inhibitor necessary to achieve ΔCT=1 over the projected baseline; EC90 the concentration necessary to achieve ΔCT=3.2 over the baseline. Alternatively, to quantitate the absolute amount of replicon RNA, a standard curve was established by including serially diluted T7 transcripts of replicon RNA in the Taqman assay. All TaqMan® reagents were from PE Applied Biosystems. Such an assay procedure was described in detail in e.g. Malcolm et al., Antimicrobial Agents and Chemotherapy 50: 1013-1020 (2006).
(§4) HCV replicon EC50 assay data for various replicons and mutants was calculated for selected compounds of the present invention using this method and is provided in the tables above herein.

[2] = system: HCV 1a Y93H replicon; test: Cell-based HCV replicon assay (TaqMan), 1a Y93H mutant replicon; settings: EC90 = concentration for ΔCT=3.2 over baseline
Experimental: as §1, §2, §3, §4

[3] = system: HCV 1a replicon; test: Cell-based HCV replicon assay (TaqMan), genotype 1a replicon; settings: HCV genotype 1a replicon cells, replicon RNA by real time PCR, day 3, EC90 = concentration for ΔCT=3.2 over baseline
Experimental: as §1, §2, §3, §4

[4] = Hepatitis C virus, 72 h, read-out: 1a Y93H EC90, HCV 1a Y93H mutant replicon cells, replicon RNA by real time PCR, day 3

SMILES	EC90 [1] [nM]	EC90 [2, 4] [nM]	EC90 ([3]; Hepatitis C virus, 72 h) [nM]	EC90 ([2]; read-out: 1a Y93H EC90, HCV 1a Y93H mutant replicon cells, replicon RNA by real time PCR, day 3) [nM]	EC90 [3] [nM]
COC(=O)N[C@H](C(=O)N1CCC[C@H]1c1ncc(-c2ccc(-c3ccc4c(ccc5nc([C@@H]6C[Si](C)(C)CN6C(=O)[C@@H](NC(=O)OC)C6CCCC6)[nH]c54)c3)cc2)[nH]1)C(C)C [Compound 58]	265	580	0.45		
CC[C@H](C)[C@H](NC(=O)OC)C(=O)N1C[Si](C)(C)C[C@H]1c1nc2ccc3cc(-c4ccc(-c5cnc([C@@H]6CCCN6C(=O)[C@@H](NC(=O)OC)C(C)C)[nH]5)cc4)ccc3c2[nH]1 [Compound 59]	245	> 1000	0.61		
COC(=O)N[C@H](C(=O)N1CCC[C@H]1c1ncc(-c2ccc(-c3ccc4c(ccc5nc([C@@H]6C[Si](C)(C)CN6C(=O)[C@@H](NC(=O)OC)[C@@H](C)OC)[nH]c54)c3)cc2)[nH]1)C(C)C [Compound 60]	52.8	> 1000	0.21		
COC(=O)N[C@@H](Cc1cccc(O)c1)C(=O)N1C[Si](C)(C)C[C@H]1c1nc2ccc3cc(-c4ccc(-c5cnc([C@@H]6CCCN6C(=O)[C@@H](NC(=O)OC)C(C)C)[nH]5)cc4)ccc3c2[nH]1 [Compound 61]	37	> 1000	0.33		
COC(=O)N[C@@H](Cn1ncnn1)C(=O)N1C[Si](C)(C)C[C@H]1c1nc2ccc3cc(-c4ccc(-c5cnc([C@@H]6CCCN6C(=O)[C@@H](NC(=O)OC)C(C)C)[nH]5)cc4)ccc3c2[nH]1 [Compound 62]	91	> 1000	0.22		
COC(=O)N[C@H](C(=O)N1CCC[C@H]1c1ncc(-c2ccc(-c3ccc4c(ccc5nc([C@@H]6C[Si](C)(C)CN6C(=O)[C@H]6COCCN6C(=O)OC)[nH]c54)c3)cc2)[nH]1)C(C)C [Compound 63]	> 1000	> 1000	5.1		
COC(=O)N[C@H](C(=O)N1CCC[C@H]1c1ncc(-c2ccc(-c3ccc4c(ccc5nc([C@@H]6C[Si](C)(C)CN6C(=O)[C@@H]6COCCN6C(=O)OC)[nH]c54)c3)cc2)[nH]1)C(C)C [Compound 64]	273	> 1000	1.6		
COC(=O)N[C@@H](Cc1cn(C)cn1)C(=O)N1C[Si](C)(C)C[C@H]1c1nc2ccc3cc(-c4ccc(-c5cnc([C@@H]6CCCN6C(=O)[C@@H](NC(=O)OC)C(C)C)[nH]5)cc4)ccc3c2[nH]1 [Compound 65]	308	564	0.36		
COC(=O)N[C@@H](Cn1cccn1)C(=O)N1C[Si](C)(C)C[C@H]1c1nc2ccc3cc(-c4ccc(-c5cnc([C@@H]6CCCN6C(=O)[C@@H](NC(=O)OC)C(C)C)[nH]5)cc4)ccc3c2[nH]1 [Compound 66]	321	> 1000	0.39		
CC[C@H](C)[C@H](NC(=O)OC)C(=O)N1CCC[C@H]1c1ncc(-c2ccc(-c3ccc4c(ccc5nc([C@@H]6C[Si](C)(C)CN6C(=O)[C@@H](NC(=O)OC)C(C)C)[nH]c54)c3)cc2)[nH]1 [Compound 81]	561	994	0.3		
COC(=O)N[C@H](C(=O)N1C[Si](C)(C)C[C@H]1c1nc2ccc3cc(-c4ccc(-c5cnc([C@@H]6CCCN6C(=O)[C@@H](NC(=O)OC)C6CC6)[nH]5)cc4)ccc3c2[nH]1)C(C)C [Compound 82]	154	659	0.24		
COC(=O)N[C@@H](CC1CC1)C(=O)N1CCC[C@H]1c1ncc(-c2ccc(-c3ccc4c(ccc5nc([C@@H]6C[Si](C)(C)CN6C(=O)[C@@H](NC(=O)OC)C(C)C)[nH]c54)c3)cc2)[nH]1 [Compound 83]	406	528	0.46		
COC(=O)N[C@@H](CC(C)(C)C)C(=O)N1CCC[C@H]1c1ncc(-c2ccc(-c3ccc4c(ccc5nc([C@@H]6C[Si](C)(C)CN6C(=O)[C@@H](NC(=O)OC)C(C)C)[nH]c54)c3)cc2)[nH]1 [Compound 84]	413	> 1000	0.92		
COC(=O)N[C@H](C(=O)N1C[Si](C)(C)C[C@H]1c1nc2ccc3cc(-c4ccc(-c5cnc([C@@H]6CCCN6C(=O)[C@@H](NC(=O)OC)C6CCCC6)[nH]5)cc4)ccc3c2[nH]1)C(C)C [Compound 85]	330	> 1000	0.52		
COC(=O)N[C@H](C(=O)N1C[Si](C)(C)C[C@H]1c1nc2ccc3cc(-c4ccc(-c5cnc([C@@H]6CCCN6C(=O)[C@@H](NC(=O)OC)C(C)(C)OC)[nH]5)cc4)ccc3c2[nH]1)C(C)C [Compound 86]	389	> 1000	0.77		
COC(=O)N[C@H](C(=O)N1C[Si](C)(C)C[C@H]1c1nc2ccc3cc(-c4ccc(-c5cnc([C@@H]6CCCN6C(=O)[C@@H](NC(=O)OC)[C@@H](C)O)[nH]5)cc4)ccc3c2[nH]1)C(C)C [Compound 87]	81.7	> 1000	0.67		
CCN(CC)[C@@H](C(=O)N1CCC[C@H]1c1ncc(-c2ccc(-c3ccc4c(ccc5nc([C@@H]6C[Si](C)(C)CN6C(=O)[C@@H](NC(=O)OC)C(C)C)[nH]c54)c3)cc2)[nH]1)c1ccccc1 [Compound 88]	10.9	500	0.26		
COC(=O)N[C@H](C(=O)N1C[Si](C)(C)C[C@H]1c1nc2ccc3cc(-c4ccc(-c5cnc([C@@H]6CCCN6C(=O)[C@@H](NC(=O)OC)[C@@H](C)OC)[nH]5)cc4)ccc3c2[nH]1)C(C)C [Compound 89]	> 1000	> 1000	0.28		
COC(=O)N[C@@H](CO)C(=O)N1CCC[C@H]1c1ncc(-c2ccc(-c3ccc4c(ccc5nc([C@@H]6C[Si](C)(C)CN6C(=O)[C@@H](NC(=O)OC)C(C)C)[nH]c54)c3)cc2)[nH]1 [Compound 90]	> 1000	> 1000	0.56		
COC(=O)N[C@H](C(=O)N1CCC[C@H]1c1nc(Cl)c(-c2ccc(-c3ccc4c(ccc5nc([C@@H]6C[Si](C)(C)CN6C(=O)[C@@H](NC(=O)OC)C(C)C)[nH]c54)c3)cc2)[nH]1)C(C)C [Compound 94]	184	935	0.19		
COC(=O)N[C@H](C(=O)N1C[Si](C)(C)C[C@H]1c1nc2ccc3cc(-c4ccc(-c5cnc([C@@H]6C[C@H]7C[C@H]7N6C(=O)[C@@H](NC(=O)OC)C6CCOCC6)[nH]5)cc4)ccc3c2[nH]1)C1CCOCC1 [Compound 99]	3.5	42	0.14		
CC(C)(C)OC(=O)N1C[Si](C)(C)C[C@H]1c1nc2ccc3cc(-c4ccc(-c5[nH]c([C@@H]6C[C@H]7C[C@H]7N6C(=O)OC(C)(C)C)nc5Cl)cc4)ccc3c2[nH]1 [Compound 100]	> 1000	> 1000	> 1000		
COC(=O)N[C@H](C(=O)N1C[Si](C)(C)C[C@H]1c1nc2ccc3cc(-c4ccc(-c5[nH]c([C@@H]6C[C@H]7C[C@H]7N6C(=O)[C@@H](NC(=O)OC)C6CCOCC6)nc5Cl)cc4)ccc3c2[nH]1)C1CCOCC1 [Compound 103]	2.85	16.1	0.082		
CC(C)(C)OC(=O)N1C[Si](C)(C)C[C@H]1c1nc2ccc3cc(-c4ccc(-c5cnc([C@@H]6C[C@H]7C[C@H]7N6C(=O)OC(C)(C)C)[nH]5)cc4)ccc3c2[nH]1 [Compound 104]	> 1000			> 1000	> 1000
